Laboratory results: US20260274876A1, “3-PYRROLIDINE-INDOLE DIMERS AS SEROTONERGIC AGENTS USEFUL FOR THE TREATMENT OF DISORDERS RELATED THERETO” (MINDSET PHARMA INC., priority 2022, published 2026)
Read-outs that look alike come from different tables or passages of the source.

Tests used:
human 5-HT1A receptor = target: T1, human 5-HT1A receptor (Homo sapiens, UniProt P08908); experiment: Human 5-HT1A radioligand binding assay ([3H]-8-Hydroxy-DPAT)
T1 sequence (P08908 1-422): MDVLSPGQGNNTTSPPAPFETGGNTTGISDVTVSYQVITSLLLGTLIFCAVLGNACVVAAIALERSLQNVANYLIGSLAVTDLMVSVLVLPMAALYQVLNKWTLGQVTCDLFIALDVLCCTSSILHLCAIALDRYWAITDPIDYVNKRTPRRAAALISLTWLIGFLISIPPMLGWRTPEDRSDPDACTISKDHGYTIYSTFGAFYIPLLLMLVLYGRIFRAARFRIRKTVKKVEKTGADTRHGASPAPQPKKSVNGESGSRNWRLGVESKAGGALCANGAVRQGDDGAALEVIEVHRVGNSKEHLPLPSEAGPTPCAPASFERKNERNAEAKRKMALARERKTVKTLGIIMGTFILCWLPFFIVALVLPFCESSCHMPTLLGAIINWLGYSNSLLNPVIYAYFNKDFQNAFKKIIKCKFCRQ
Description: The objective of this study was to evaluate the binding properties of test compounds on 5-hydroxytryptamine receptor 1A (5-HT1A).
(§1) • 1. The assay buffer was prepared following the table below.
• 2. 8 doses of reference and test compounds were prepared starting from 10 mM stock solution as required by 5-fold serial dilutions with 100% (v/v) DMSO. • 3. UniFilter-96 GF/B plate was pretreated: • i. 50 μl/well of 0.5% (v/v) PEI was added to UniFilter-96 GF/B plates. The plates were sealed and incubated at 4° C. for 3 hrs. • ii. After incubation, the plates were washed 3 times with ice-cold wash buffer (50 mM Tris, pH7.4). • 4. Assay plate was prepared: • i. Cell membrane was diluted with assay buffer and 100 μl/well was added to 96 round well plates to reach a concentration of 20 μg/well. • ii. 8 concentrations of reference or test compounds were prepared and 50 μl/well was added to 96 round deep well plates. • iii. [3H]-8-Hydroxy-DPAT was diluted with assay buffer to 2 nM (4×final concentration) and 50 μl/well was added to 96 round well plates. • 5. The plate was centrifuged at 1000 rpm for 30 secs and then agitated at 600 rpm, R.T. for 5 min. • 6. The plates were sealed and the plate was incubated at 27° C. for 90 min. • 7. The incubation was stopped by vacuum filtration onto GF/B filter plates followed by 4 times washing with ice-cold wash buffer (50 mM Tris, pH7.4). • 8. The plates were dried at 37° C. for 45 min. • 9. The filter plates were sealed and 40 μl/well of scintillation cocktail was added. • 10. The plate was read by using a Microbeta^2 microplate counter.
(§2) • 1. For reference and test compounds, the results were expressed as % Inhibition, using the normalization equation: N=100−100×(U−C2)/(C1−C2), where U is the unknown value, C1 is the average of high controls, and C2 is the average of low controls. • 2. The IC50 was determined by fitting percentage of inhibition as a binding of compound concentrations with Hill equation using XLfit.

human 5-HT2A receptor = human 5-HT2A receptor (Homo sapiens, UniProt P28223); experiment: Human 5-HT2A radioligand binding assay ([3H]-ketanserin)
Description: The objective of this study was to evaluate the binding properties of exemplary compounds of Formula I on 5-hydroxytryptamine receptor 2A (5-HT2A).
as §1
• 2. 8 doses of reference and test compounds starting from 10 mM stock solution as required was prepared by 5-fold serial dilutions with 100% (v/v) DMSO. • 3. UniFilter-96 GF/B plate was pretreated: • i. 50 μl/well of 0.5% (v/v) PEI was added to […]. The plates were sealed and incubated at […] for 3 hrs. • ii. After incubation, the plates were washed 3 times with ice-cold wash buffer (50 mM Tris, pH7.4). • 4. The assay plate was prepared: • i. Cell membrane was diluted with assay buffer and 330 μl/well was added to 96 round deep well plates to reach a concentration of 20 μg/well. • ii. 8 concentrations of reference or test compounds were prepared and 110 μl/well was added to 96 round deep well plates. • iii. [3H]-ketanserin was diluted with assay buffer to 5 nM (5×final concentration) and 110 μl/well was added to 96 round deep well plates. • 5. The plate was centrifuged at 1000 rpm for 30 secs and then agitated at 600 rpm, R.T. for 5 min. • 6. The plates were sealed and the plate incubated at 279C for 90 min. • 7. The incubation was stopped by vacuum filtration onto GF/B filter plates followed by 4 times washing with ice-cold wash buffer (50 mM Tris, pH7.4). • 8. The plates were dried at 379C for 45 min. • 8. The filter plates were sealed and 40 μl/well of scintillation cocktail was added. • 10. The plate was read by using a Microbeta^2 microplate counter.
as §2, with “function” for “binding”

[1] = Intestinal mucosal permeation using Caco-2 cell monolayers; details: human; for Papp A→B at 2 h, 5 µM / Papp B→A at 2 h, 5 µM / efflux ratio at 2 h, 5 μM: Caco-2, pH 7.4
Description: Plate was returned to incubator.
Vortexed for 5 minutes. […] Incubated at 37° C. for 30 minutes.

[2] = Liver microsomes stability, mouse; details: for Remaining Percentage (%) after 60 min, Mouse, With cofactors / half-life at 2 μM / microsomal CLint at 2 μM / Remaining Percentage (%) after 60 min, Mouse, Without cofactors: mouse liver microsomes; for half-life at 2 μM / microsomal CLint at 2 μM: male, mouse
Description: 40 μL of 10 mM NADPH solution was added to each well. The final concentration of NADPH was 1 mM. The negative control samples were prepared by replacing NADPH with 40 μL of ultra-pure H2O. Samples were prepared in duplicate. Negative controls were prepared in singlet.
This study was performed in duplicate.
LC/MS analysis was performed for all samples from this study using a Shimadzu liquid chromatograph separation system equipped with degasser DGU-20A5R; solvent delivery unit LC-30AD; system controller SIL-30AC; column oven CTO-30A; CTC Analytics HTC PAL System. Mass spectrometric analysis was performed using a Triple Quad™ 5500 instrument.
All calculations were carried out using Microsoft Excel.
All calculations were carried out using Microsoft Excel. Peak areas were determined from extracted ion chromatograms.

[3] = Caco-2, pH 7.4, Percentage recovery (%) A→B, Caco-2, A→B
[4] = Caco-2, pH 7.4, Percentage recovery (%) B→A, Caco-2, B→A

Sequence of human 5-HT2A receptor (P28223 whole entry): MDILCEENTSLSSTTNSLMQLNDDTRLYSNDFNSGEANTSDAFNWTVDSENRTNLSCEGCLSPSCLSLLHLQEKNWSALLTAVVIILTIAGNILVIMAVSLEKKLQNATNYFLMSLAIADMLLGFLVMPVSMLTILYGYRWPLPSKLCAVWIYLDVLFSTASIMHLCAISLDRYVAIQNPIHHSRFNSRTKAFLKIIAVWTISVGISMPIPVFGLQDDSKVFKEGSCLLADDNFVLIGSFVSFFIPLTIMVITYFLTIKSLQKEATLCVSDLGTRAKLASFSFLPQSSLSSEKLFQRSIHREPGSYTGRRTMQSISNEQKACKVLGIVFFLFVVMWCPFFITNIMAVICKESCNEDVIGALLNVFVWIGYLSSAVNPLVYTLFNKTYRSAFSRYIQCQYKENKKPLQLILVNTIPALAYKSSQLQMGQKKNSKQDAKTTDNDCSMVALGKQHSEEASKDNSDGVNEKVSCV

Compound	IC50 (human 5-HT1A receptor) [nM]	IC50 (human 5-HT2A receptor) [nM]	IC50 (human 5-HT1A receptor; radioligand binding, [3H]-8-Hydroxy-DPAT, read-out: h5-HT1A, IC50) [nM]	Papp A→B at 2 h, 5 µM [1] [×10⁻⁶ cm/s]	Papp B→A at 2 h, 5 µM [1] [×10⁻⁶ cm/s]	recovery at 2 h, 5 μM [1, 3] [%]	recovery at 2 h, 5 μM [1, 4] [%]	t1/2 Mouse ([2]; mouse liver microsomes with NADPH, 2 μM) [min]	Remaining Percentage (%) after 60 min, Mouse, With cofactors [2] [%]	efflux ratio at 2 h, 5 μM [1]	half-life at 2 μM [2] [min]	microsomal CLint at 2 μM [2] [µL/min/mg]	Remaining Percentage (%) after 60 min, Mouse, Without cofactors [2] [%]
[2H]C([2H])(c1c[nH]c2cccc(O)c12)[C@H]1CCCN1C([2H])([2H])[2H] [Compound 13, (R)-3-((1-(methyl-d3)pyrrolidin-2-yl)methyl-d2)-1H-indol-4-ol]	156	219											
CN(C)CCc1c[nH]c2cccc(O)c12 [Psilocin, 4-hydroxy-N,N-dimethyltryptamine, reference compound]			196	24.6	18.7	100	102	141.71	96.89				
CN1CCC[C@@H]1Cc1c[nH]c2cccc(O)c12 [Compound 10, (R)-3-((1-methylpyrrolidin-2-yl)methyl)-1H-indol-4-ol]	148	219		23.2	18.8	82.7	92			0.81			
[2H]C([2H])(c1c[nH]c2cccc(OC(=O)CCCC(=O)Oc3cccc4[nH]cc(C([2H])([2H])[C@H]5CCCN5C([2H])([2H])[2H])c34)c12)[C@H]1CCCN1C([2H])([2H])[2H] [Compound I-22, bis(3-(((R)-1-(methyl-d3)pyrrolidin-2-yl)methyl-d2)-1H-indol-4-yl) glutarate]	124	44.8		< 0.25	1.01	< 126	101		0	> 4.08	< 4.51	> 307	0
CN1CCC[C@@H]1Cc1c[nH]c2cccc(OC(=O)CCCC(=O)Oc3cccc4[nH]cc(C[C@H]5CCCN5C)c34)c12 [Compound I-13, Bis(3-(((R)-1-methylpyrrolidin-2-yl)methyl)-1H-indol-4-yl) glutarate]	154	37		0.63	4.1	94.7	110		0	6.5	< 4.51	> 307	0
